The target in test [1] is T1, mu opioid receptor (MOR) (Homo sapiens, UniProt P35372). The experiment in a line: PathHunter β-arrestin recruitment assay, PAM mode with EC20 endomorphin-1. The format is cell-based. The conditions noted are these: β-arrestin recruitment; for β-arr Max. Resp.: maximal response; for EC50: read-out: β-arr. EC50. Put shortly: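 β-Arrestin recruitment to the receptor was tracked by chemiluminescent β-galactosidase activity from complementing fragments (ED on receptor, EA on β-arrestin). Per-compound outputs were EC50 and percent maximal response.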
T1 sequence (P35372 whole entry, the tested form may be a part): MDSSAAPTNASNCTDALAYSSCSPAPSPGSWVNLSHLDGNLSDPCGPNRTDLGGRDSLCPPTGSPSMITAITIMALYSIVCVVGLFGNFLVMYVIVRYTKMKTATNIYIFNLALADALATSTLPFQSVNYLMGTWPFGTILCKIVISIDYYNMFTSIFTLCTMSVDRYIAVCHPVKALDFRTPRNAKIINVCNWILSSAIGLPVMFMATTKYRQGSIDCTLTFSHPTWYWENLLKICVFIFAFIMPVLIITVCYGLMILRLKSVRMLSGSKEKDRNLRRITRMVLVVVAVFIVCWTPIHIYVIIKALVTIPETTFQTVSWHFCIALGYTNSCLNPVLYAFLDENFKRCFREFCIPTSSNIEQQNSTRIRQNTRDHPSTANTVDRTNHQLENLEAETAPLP
Background: Activated receptors often draw arrestin, which recruitment assays turn into a signal.

Test [2] has as its target T1, mu opioid receptor (MOR). Put plainly: Hit Hunter cAMP signaling assay (adenylyl cyclase inhibition), PAM mode with EC20 endomorphin-1. Format: cell-based. Conditions: for cAMP Max. Resp.: maximal response.
[3] abbreviates: cAMP EC50, adenylyl cyclase inhibition.
[4] abbreviates: adenylyl cyclase inhibition, read-out: cAMP EC50.

As a reminder, the EC50 is the midpoint of the concentration-response curve. On to `C#Cc1cccc(N2CCCCC2c2cccc(C(F)(F)F)n2)c1` (centres unmarked) [compound 451], for which the “β-arr Max. Resp.” value in test [1] was “F (F represents a maximal response of > 60%)”. Further, the EC50 in test [1] and in test [2] (setting [3]) was > 2100 nM throughout. For the same compound, in test [2] (adenylyl cyclase inhibition), the “cAMP Max. Resp.” value is listed as “D (D represents a maximal response of < 40%)”.
On to `FC(F)(F)c1ccc(N2CCCCC2c2cccc(C(F)(F)F)n2)cc1` (centres unmarked) [compound 452], for which the “β-arr Max. Resp.” value in test [1] is “E (E represents a maximal response of 40-60%)”. The EC50 in test [1] and in test [2] (setting [3]) was > 2100 nM throughout. In test [2] (adenylyl cyclase inhibition), the “cAMP Max. Resp.” value is given as “D (D represents a maximal response of < 40%)”.
In the case of `Fc1ccc(C2CCCCN2c2ccc(C(F)(F)F)cc2)cc1Cl` (centres unmarked) [compound 453], in test [1], the “β-arr Max. Resp.” value is listed as “D (D represents a maximal response of < 40%)” and the EC50 is > 2100 nM. For the same compound, the 50% effective concentration (EC50) in test [2] (setting [3]) is > 2100 nM. For the same compound, in test [2] (adenylyl cyclase inhibition), the “cAMP Max. Resp.” value is given as “D (D represents a maximal response of < 40%)”.
As to `FC(F)(F)c1cccc(C2CCCCN2c2ccc(Cl)cc2)n1` (centres unmarked) [compound 454], in test [1], the “β-arr Max. Resp.” value is “E (E represents a maximal response of 40-60%)” and the concentration giving a half-maximal response (EC50) was > 2100 nM. In addition, the 50% effective concentration (EC50) in test [2] (setting [4]) is > 2100 nM. Also, the “cAMP Max. Resp.” value in test [2] (adenylyl cyclase inhibition) is on record as “D (D represents a maximal response of < 40%)”.
On to `COc1cccc(N2CCCCC2c2cccc(C(F)(F)F)n2)c1` (centres unmarked) [compound 455], for which, in test [1], the “β-arr Max. Resp.” value is on record as “E (E represents a maximal response of 40-60%)” and the 50% effective concentration (EC50) was > 2100 nM. In addition, the concentration giving a half-maximal response (EC50) in test [2] (setting [4]) was > 2100 nM. Moreover, the “cAMP Max. Resp.” value in test [2] (adenylyl cyclase inhibition) is “D (D represents a maximal response of < 40%)”.
`Fc1cc(C2CC(C(F)(F)F)CN2c2nc(Cl)ncc2F)cc(C(F)(F)F)c1` (centres unmarked) [compound 457]: the “β-arr Max. Resp.” value in test [1] was “F (F represents a maximal response of > 60%)”. Also, the EC50 in test [1] and in test [2] (setting [4]) was > 2100 nM in each case. For the same compound, the “cAMP Max. Resp.” value in test [2] (adenylyl cyclase inhibition) is “E (E represents a maximal response of 40-60%)”.
For the compound `Cc1ccc(N2CCCCC2c2ccc(F)c(Cl)c2)cc1` (centres unmarked) [compound 458], in test [1], the “β-arr Max. Resp.” value was “E (E represents a maximal response of 40-60%)” and the EC50 is > 2100 nM. Moreover, the EC50 in test [2] (setting [3]) is > 2100 nM. For the same compound, the “cAMP Max. Resp.” value in test [2] (adenylyl cyclase inhibition) was “D (D represents a maximal response of < 40%)”.
In the case of `FC(F)(F)c1cccc(C2CCCCN2c2cccc(Cl)c2)n1` (centres unmarked) [compound 459], in test [1], the “β-arr Max. Resp.” value is “F (F represents a maximal response of > 60%)” and the EC50 is > 2100 nM. Also, the EC50 in test [2] (setting [4]) was > 2100 nM. Further, in test [2] (adenylyl cyclase inhibition), the “cAMP Max. Resp.” value is on record as “D (D represents a maximal response of < 40%)”.
Take `COc1ncc(F)c(N2CCCCC2c2ccc(F)c(Cl)c2)n1` (centres unmarked) [compound 461]: in test [1], the “β-arr Max. Resp.” value was “F (F represents a maximal response of > 60%)” and the concentration giving a half-maximal response (EC50) is > 2100 nM. Moreover, the concentration giving a half-maximal response (EC50) in test [2] (setting [3]) was > 2100 nM. Besides, the “cAMP Max. Resp.” value in test [2] (adenylyl cyclase inhibition) was “E (E represents a maximal response of 40-60%)”.
On to `[N-]=[N+]=Nc1ccc(N2CCCCC2c2ccc(F)c(Cl)c2)cc1` (centres unmarked) [compound 462], for which, in test [1], the “β-arr Max. Resp.” value is recorded as “E (E represents a maximal response of 40-60%)” and the EC50 is > 2100 nM. Further, the EC50 in test [2] (setting [3]) was > 2100 nM. Besides, in test [2] (adenylyl cyclase inhibition), the “cAMP Max. Resp.” value was “D (D represents a maximal response of < 40%)”.
With `C#Cc1ccccc1N1CCCCC1c1ccc(F)c(Cl)c1` (centres unmarked) [compound 463], in test [1], the “β-arr Max. Resp.” value is recorded as “D (D represents a maximal response of < 40%)” and the EC50 was > 2100 nM. For the same compound, in test [2] (setting [4]), the EC50 was > 2100 nM. Also, in test [2] (adenylyl cyclase inhibition), the “cAMP Max. Resp.” value is “D (D represents a maximal response of < 40%)”.
Take `Fc1ccc(C2CC(F)CN2c2nc(Cl)ncc2F)cc1Cl` (centres unmarked) [compound 464]: in test [1], the “β-arr Max. Resp.” value is reported as “E (E represents a maximal response of 40-60%)” and the EC50 is > 2100 nM. For the same compound, in test [2] (setting [4]), the 50% effective concentration (EC50) was > 2100 nM. Also, the “cAMP Max. Resp.” value in test [2] (adenylyl cyclase inhibition) is “E (E represents a maximal response of 40-60%)”.
For the compound `COc1cccc(N2CCCCC2c2ccc(F)c(Cl)c2)c1` (centres unmarked) [compound 465], the “β-arr Max. Resp.” value in test [1] is given as “E (E represents a maximal response of 40-60%)”. Moreover, the EC50 in test [1] and in test [2] (setting [3]) was > 2100 nM each time. Moreover, in test [2] (adenylyl cyclase inhibition), the “cAMP Max. Resp.” value is on record as “D (D represents a maximal response of < 40%)”.
As to `COc1ccc(C2CC(F)(F)CN2c2nc(Cl)ncc2F)cc1Br` (centres unmarked) [compound 466], in test [1], the “β-arr Max. Resp.” value is “F (F represents a maximal response of > 60%)” and the EC50 was > 2100 nM. Also, the EC50 in test [2] (setting [4]) is > 2100 nM. Also, the “cAMP Max. Resp.” value in test [2] (adenylyl cyclase inhibition) was “D (D represents a maximal response of < 40%)”.
In the case of `Fc1cnc(Cl)nc1N1CC(F)(F)CC1c1cccc(C(F)(F)F)c1` (centres unmarked) [compound 467], in test [1], the “β-arr Max. Resp.” value is recorded as “F (F represents a maximal response of > 60%)” and the EC50 is > 2100 nM. The EC50 in test [2] (setting [4]) was > 2100 nM. The “cAMP Max. Resp.” value in test [2] (adenylyl cyclase inhibition) is “D (D represents a maximal response of < 40%)”.
As for `Fc1cc(C2CC(F)CN2c2nc(Cl)ncc2F)cc(C(F)(F)F)c1` (centres unmarked) [compound 468], in test [1], the “β-arr Max. Resp.” value was “F (F represents a maximal response of > 60%)” and the EC50 is > 2100 nM. Moreover, in test [2] (setting [4]), the EC50 was > 2100 nM. In addition, the “cAMP Max. Resp.” value in test [2] (adenylyl cyclase inhibition) is “F (F represents a maximal response of > 60%)”.
As to `FC(F)(F)c1cccc(C2CCCCN2c2ccnc(Cl)n2)n1` (centres unmarked) [compound 469], in test [1], the “β-arr Max. Resp.” value is “F (F represents a maximal response of > 60%)” and the EC50 was > 2100 nM. For the same compound, the EC50 in test [2] (setting [3]) was > 2100 nM. Also, in test [2] (adenylyl cyclase inhibition), the “cAMP Max. Resp.” value was “D (D represents a maximal response of < 40%)”.
As to `Fc1ccc(C2CCCCN2c2ccnc(Cl)n2)cc1Cl` (centres unmarked) [compound 470], in test [1], the “β-arr Max. Resp.” value is “F (F represents a maximal response of > 60%)” and the concentration giving a half-maximal response (EC50) was > 2100 nM. In addition, the EC50 in test [2] (setting [3]) is > 2100 nM. Moreover, the “cAMP Max. Resp.” value in test [2] (adenylyl cyclase inhibition) is on record as “E (E represents a maximal response of 40-60%)”.
With `Cc1cc(C)cc(N2CCCCC2c2ccc(F)c(Cl)c2)c1` (centres unmarked) [compound 471], in test [1], the “β-arr Max. Resp.” value is listed as “F (F represents a maximal response of > 60%)” and the EC50 was > 2100 nM. Besides, the EC50 in test [2] (setting [3]) was > 2100 nM. In addition, the “cAMP Max. Resp.” value in test [2] (adenylyl cyclase inhibition) is reported as “D (D represents a maximal response of < 40%)”.
For the compound `Fc1cnc(Cl)nc1N1CC(C(F)(F)F)CC1c1cccc(C(F)(F)F)c1` (centres unmarked) [compound 473], in test [1], the “β-arr Max. Resp.” value is on record as “E (E represents a maximal response of 40-60%)” and the concentration for a half-maximal effect (EC50) was > 2100 nM. In addition, the 50% effective concentration (EC50) in test [2] (setting [4]) was > 2100 nM. For the same compound, the “cAMP Max. Resp.” value in test [2] (adenylyl cyclase inhibition) was “D (D represents a maximal response of < 40%)”.
`COc1ccc(N2CCCCC2c2cccc(C(F)(F)F)n2)cc1` (centres unmarked) [compound 474]: in test [1], the “β-arr Max. Resp.” value is “D (D represents a maximal response of < 40%)” and the concentration for a half-maximal effect (EC50) is > 2100 nM. Besides, in test [2] (setting [4]), the EC50 is > 2100 nM. Besides, the “cAMP Max. Resp.” value in test [2] (adenylyl cyclase inhibition) was “D (D represents a maximal response of < 40%)”.
As to `Fc1ccc(N2CCCCC2c2ccc(F)c(Cl)c2)cc1` (centres unmarked) [compound 475], in test [1], the “β-arr Max. Resp.” value is given as “F (F represents a maximal response of > 60%)” and the EC50 is > 2100 nM. Further, the half-maximal effective concentration (EC50) in test [2] (setting [3]) is > 2100 nM. Further, the “cAMP Max. Resp.” value in test [2] (adenylyl cyclase inhibition) is given as “D (D represents a maximal response of < 40%)”.
Regarding `Fc1ccc(C2CC(C(F)(F)F)CN2c2nc(Cl)ncc2F)cc1Cl` (centres unmarked) [compound 476], in test [1], the “β-arr Max. Resp.” value is listed as “E (E represents a maximal response of 40-60%)” and the half-maximal effective concentration (EC50) is > 2100 nM. For the same compound, the EC50 in test [2] (setting [4]) was > 2100 nM. For the same compound, the “cAMP Max. Resp.” value in test [2] (adenylyl cyclase inhibition) was “D (D represents a maximal response of < 40%)”.

(Values after US11071731B2, “Allosteric modulators of the mu opioid receptor” (Chiromics, LLC, priority 2017, dated 2021).)
